Data taken from ChEMBL document CHEMBL4002550, “Fragment-based discovery of novel pentacyclic triterpenoid derivatives as cholesteryl ester transfer protein inhibitors” (Eur J Med Chem, 2017).

Target: T1, Cholesteryl ester transfer protein (Homo sapiens, UniProt P11597)
T1 sequence (P11597 whole entry): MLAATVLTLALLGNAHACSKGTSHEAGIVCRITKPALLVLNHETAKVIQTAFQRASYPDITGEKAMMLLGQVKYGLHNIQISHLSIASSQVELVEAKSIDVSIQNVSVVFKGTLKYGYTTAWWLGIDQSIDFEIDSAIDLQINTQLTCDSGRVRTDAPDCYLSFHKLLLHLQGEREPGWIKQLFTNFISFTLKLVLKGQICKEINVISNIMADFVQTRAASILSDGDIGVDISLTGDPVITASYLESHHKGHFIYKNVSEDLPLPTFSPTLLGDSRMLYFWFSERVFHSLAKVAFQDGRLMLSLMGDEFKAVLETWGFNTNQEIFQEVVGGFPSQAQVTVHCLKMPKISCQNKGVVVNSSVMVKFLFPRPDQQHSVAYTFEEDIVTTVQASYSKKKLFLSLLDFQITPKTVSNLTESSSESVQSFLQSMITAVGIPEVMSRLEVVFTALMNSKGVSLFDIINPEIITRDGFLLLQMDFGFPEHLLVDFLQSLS
Test: Inhibition of recombinant full length human CETP expressed in CHO cells assessed as reduction in BODIPY-CE transfer measured after 1 to 3 hrs by fluorescence assay
Type: cell-based

SMILES | IC50 [µM]
CCOC(=O)N1c2ccc(C(F)(F)F)cc2[C@@H](NC(=O)CC(=O)O[C@H]2CC[C@]3(C)[C@H]4CC=C5[C@@H]6[C@@H](C)[C@H](C)CC[C@]6(C(=O)O)CC[C@@]5(C)[C@]4(C)CC[C@H]3C2(C)C)C[C@H]1CC | 4.42
CCOC(=O)N1c2ccc(C(F)(F)F)cc2[C@@H](NC(=O)CC(=O)O[C@H]2CC[C@]3(C)[C@H]4CC=C5[C@@H]6CC(C)(C)CC[C@]6(C(=O)O)CC[C@@]5(C)[C@]4(C)CC[C@H]3C2(C)C)C[C@H]1CC | > 50
CCOC(=O)N1c2ccc(C(F)(F)F)cc2[C@@H](NC(=O)CCCC(=O)O[C@H]2CC[C@]3(C)[C@H]4CC=C5[C@@H]6CC(C)(C)CC[C@]6(C(=O)O)CC[C@@]5(C)[C@]4(C)CC[C@H]3C2(C)C)C[C@H]1CC | > 50
CCOC(=O)N1c2ccc(C(F)(F)F)cc2[C@@H](NC(=O)CCC(=O)O[C@H]2CC[C@]3(C)[C@H]4CC=C5[C@@H]6[C@@H](C)[C@H](C)CC[C@]6(C(=O)O)CC[C@@]5(C)[C@]4(C)CC[C@H]3C2(C)C)C[C@H]1CC | 0.28
CCOC(=O)N1c2ccc(C(F)(F)F)cc2[C@@H](NC(=O)CCCC(=O)O[C@H]2CC[C@]3(C)[C@H]4CC=C5[C@@H]6[C@@H](C)[C@H](C)CC[C@]6(C(=O)O)CC[C@@]5(C)[C@]4(C)CC[C@H]3C2(C)C)C[C@H]1CC | 3.79
CCOC(=O)N1c2ccc(C(F)(F)F)cc2[C@@H](NC(=O)CCC(=O)O[C@H]2CC[C@]3(C)[C@H]4CC=C5[C@@H]6CC(C)(C)CC[C@]6(C(=O)O)CC[C@@]5(C)[C@]4(C)CC[C@H]3C2(C)C)C[C@H]1CC | > 50
